Assay [1] concerns the target T1, Thromboxane-A synthase (Homo sapiens, UniProt P24557).
T1 sequence (P24557 whole entry): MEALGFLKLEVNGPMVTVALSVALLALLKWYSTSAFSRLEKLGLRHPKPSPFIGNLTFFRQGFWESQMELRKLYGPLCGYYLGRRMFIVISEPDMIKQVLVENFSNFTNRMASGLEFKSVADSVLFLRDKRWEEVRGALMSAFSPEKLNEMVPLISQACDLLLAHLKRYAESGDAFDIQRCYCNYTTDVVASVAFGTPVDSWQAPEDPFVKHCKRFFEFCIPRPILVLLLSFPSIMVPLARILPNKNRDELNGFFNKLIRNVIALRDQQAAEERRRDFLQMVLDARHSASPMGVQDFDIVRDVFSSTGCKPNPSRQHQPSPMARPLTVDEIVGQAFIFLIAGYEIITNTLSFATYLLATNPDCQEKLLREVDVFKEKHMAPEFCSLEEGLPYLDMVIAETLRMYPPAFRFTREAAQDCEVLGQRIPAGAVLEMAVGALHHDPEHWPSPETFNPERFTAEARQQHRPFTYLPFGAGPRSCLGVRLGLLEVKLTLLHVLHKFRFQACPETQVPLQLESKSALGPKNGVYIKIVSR
Kind of assay: Inhibitory concentration against thromboxane synthase enzyme.

The species entered for assay [2] is Homo sapiens. In words: Inhibitory concentration against U 46619 induced aggregation of human platelet rich plasma(PRP). It is filed as functional.
Assay [3] is filed under the species Homo sapiens. In words: Inhibitory concentration against U 46619 induced aggregation of human washed platelets(WP). It is filed as functional.
The species named for assay [4] is Homo sapiens. Kind of assay: Inhibitory concentration against U 46619 induced aggregation of human washed platelets(WP); IA=Inactive. It is filed as functional.
The target of assay [5] is T1, Thromboxane-A synthase. In words: Inhibitory concentration against thromboxane synthase enzyme; IA=Inactive.
For assay [6], the species on record is Homo sapiens. Kind of assay: Inhibitory concentration against U 46619 induced aggregation of human platelet rich plasma(PRP); IA=Inactive. It is filed as functional.

Consider 6 compounds from ChEMBL document CHEMBL1150530, “Thromboxane receptor antagonism combined with thromboxane synthase inhibition. 6. 4-substituted 3-pyridinylalkanoic acids” (Bioorg Med Chem Lett, 1992).

SMILES strings stand for the structures.

As usually defined, the IC50 is the concentration needed to halve the response being measured. On to `O=C(O)CCCCCc1cnccc1CCNS(=O)(=O)c1ccc(Cl)cc1`, for which the values for the IC50 against Thromboxane-A synthase [1], in the assay filed under Homo sapiens [2] and in the assay filed under Homo sapiens [3] were 0.043 µM, 0.61 µM and 0.195 µM, respectively.

`O=C(O)CCCCCCc1cnccc1NS(=O)(=O)c1ccc(Cl)cc1`: the IC50 result in the assay listed under Homo sapiens [4], on Thromboxane-A synthase [5] and in the assay filed under Homo sapiens [6] was “Not Active” throughout.

As for `O=C(O)CCCCCc1cnccc1CNS(=O)(=O)c1ccc(Cl)cc1`, the values for the IC50 at Thromboxane-A synthase [1], in the assay listed under Homo sapiens [2] and in the assay listed under Homo sapiens [3] were 0.066 µM, 1.08 µM and 0.22 µM, respectively.

In the case of `O=C(O)CCCCCCc1cnccc1CCCNS(=O)(=O)c1ccc(Cl)cc1`, the IC50 on Thromboxane-A synthase [1] stood at 0.015 µM; in the assay listed under Homo sapiens [2], 7.97 µM; in the assay filed under Homo sapiens [3], 1.44 µM.

As to `O=C(O)CCCCCc1cnccc1CCCNS(=O)(=O)c1ccc(Cl)cc1`, the IC50 against Thromboxane-A synthase [1] came out at 0.1 µM; in the assay filed under Homo sapiens [2], 0.67 µM; in the assay listed under Homo sapiens [3] it was 0.036 µM.

Regarding `O=C(O)CCCCCCc1cnccc1CCNS(=O)(=O)c1ccc(Cl)cc1`, the results for the IC50 at Thromboxane-A synthase [1], in the assay listed under Homo sapiens [2] and in the assay listed under Homo sapiens [3] were 0.08 µM, 0.44 µM and 0.094 µM, respectively.
